Structures can show the parent of a compound that is named as a salt. Where two headings read alike, the source gives them in different places.

For the assay, the system named is mice. Description: Neuropharmacological Assay (SmartCube): automated behavioral signature of compound-treated mice compared with a database of reference drug classes. As to conditions: for minimal effective dose: Mus musculus, ip; for minimal effective dose / MED / MED (minimal effective dose): i.p., that dose is shown. Type of assay: in vivo. Summed up: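 i.p. dosing 15 min pre-test (NMP/PEG/propylene glycol vehicle); 3 doses, 3.0 mg/kg reported. Output = class-match probability per behavioural effect. Potency runs 0.3, 1, 3, 10 mpk (range adjusted as needed); MED = dose with ≥45% total activity.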

Setting [1] is: minimal effective dose: dose having 45% or more total activity in SmartCube, if only one dose tested, read-out: MED.
The mark [2] stands for this setting: SmartCube class probability, 3.0 mg/kg i.p., 15 min before test.
The mark [3] stands for this setting: SmartCube probability class, 3.0 mg/kg dose, i.p. 15 min before the behavioral test.
[4] abbreviates: SmartCube probability class, 3.0 mg/kg dose, i.p. 15 min before the behavioral test, hydrochloride, 3 mg/kg.
The mark [5] stands for this setting: dose having 45% or more total activity in SmartCube, if only one dose was tested, read-out: MED (minimal effective dose).
The mark [6] stands for this setting: probability that activity matches this class of agents, 3.0 mg/kg i.p., 15 min before test.
Setting [7] is: dose having 45% or more total activity in SmartCube, if only one dose was tested, hydrochloride.
Setting [8] is: probability that activity matches this class of agents, 3.0 mg/kg i.p., 15 min before test, hydrochloride, 3 mg/kg.

Consider `CNC1(C)CCc2csc(C(F)(F)F)c2C1` (stereo not drawn) [Compound 141, N, 5-dimethyl-3-(trifluoromethyl)-6,7-dihydro-4H-2-benzothiophen-5-amine hydrochloride], for which the minimal effective dose under setting [1] came out at 3 mg/kg. Under setting [2], the AD entry is reported as “+ (≥4%)”, the AG entry is “ND (^ <4%)”, the AN result was “ND (^ <4%)” and the AP entry is “ND (^ <4%)”. Further, under setting [2], the AX result is “+++ (≥49%)”, the CE result is on record as “ND (^ <4%)”, the HL entry is on record as “ND (^ <4%)” and the MS result is reported as “ND (^ <4%)”. Moreover, under setting [2], the PS entry is “ND (^ <4%)”, the SH entry is listed as “ND (^ <4%)” and the UK entry is “ND (^ <4%)”.
For the compound `CC1(N)CCc2sccc2C1` (single isomer, unassigned) [Compound 281, 5-methyl-4,5,6,7-tetrahydrobenzo[b]thiophen-5-amine hydrochloride], under “minimal effective dose: dose having 45% or more total activity in SmartCube, if only one dose was tested, read-out: MED”, the minimal effective dose amounted to 3 mg/kg. Also, under setting [3], the AD entry is recorded as “++++ (≥74%)”, the AG result is on record as “ND (^ <4%)”, the AN entry was “ND (^ <4%)” and the CE result is on record as “ND (^ <4%)”. Besides, under setting [3], the HL result is reported as “ND (^ <4%)”, the MS result is recorded as “ND (^ <4%)”, the PS entry is reported as “ND (^ <4%)” and the SH result was “ND (^ <4%)”. In addition, the UK entry under setting [3] was “ND (^ <4%)”. In addition, under setting [4], the AP entry was “+ (≥4%)” and the AX result is listed as “+ (≥4%)”.
As for `CNC1COc2cc(F)sc2C1` (stereo not drawn) [Compound 130, 2-fluoro-N-methyl-6,7-dihydro-5H-thieno[3,2-b]pyran-6-amine hydrochloride], the minimal effective dose under setting [5] is less than 3 mg/kg. Besides, under setting [6], the AD result is “ND (^ <4%)”, the AG result is recorded as “ND (^ <4%)”, the AN entry was “ND (^ <4%)” and the AP result is on record as “++++ (≥74%)”. Further, under setting [6], the AX result was “ND (^ <4%)”, the CE entry is on record as “ND (^ <4%)”, the HL entry is given as “ND (^ <4%)” and the MS entry is recorded as “ND (^ <4%)”. Further, under setting [6], the PS result is recorded as “ND (^ <4%)”, the SH entry is “ND (^ <4%)” and the UK result is “ND (^ <4%)”.
For the compound `NC1CCc2c(C(F)(F)F)csc2C1` (single isomer, unassigned) [Compound 244, 3-(trifluoromethyl)-4,5,6,7-tetrahydrobenzothiophen-6-amine hydrochloride], under setting [2], the AG entry is recorded as “ND (^ <4%)”, the AN entry is “ND (^ <4%)”, the AP result is given as “ND (^ <4%)” and the AX entry was “ND (^ <4%)”. Further, under setting [2], the CE entry is reported as “ND (^ <4%)”, the HL entry is “ND (^ <4%)”, the MS result was “ND (^ <4%)” and the PS result is “ND (^ <4%)”. Besides, under setting [2], the SH result is given as “ND (^ <4%)” and the UK entry is reported as “ND (^ <4%)”. In addition, the AD entry (SmartCube class probability, 3.0 mg/kg i.p., 15 min before test, hydrochloride, 3 mg/kg) is given as “++++ (≥74%)”. Under “minimal effective dose: dose having 45% or more total activity in SmartCube, if only one dose tested, hydrochloride”, this compound returned an MED of less than 3 mpk.
In the case of `CNC1Cc2scc(C3CC3)c2C1` (single isomer, unassigned) [Compound 321, 3-cyclopropyl-N-methyl-5,6-dihydro-4H-cyclopenta[b]thiophen-5-amine hydrochloride], under setting [3], the AD result is on record as “ND (^ <4%)”, the AG entry is on record as “ND (^ <4%)”, the AN entry was “ND (^ <4%)” and the CE result is “ND (^ <4%)”. Further, under setting [3], the HL result is “ND (^ <4%)”, the MS entry is recorded as “ND (^ <4%)”, the PS result is listed as “ND (^ <4%)” and the SH entry was “ND (^ <4%)”. Further, under setting [4], the AP result was “+ (≥4%)”, the AX result was “++++ (≥74%)” and the UK entry is recorded as “ND (^ <4%)”. The compound further displayed an MED (minimal effective dose: dose having 45% or more total activity in SmartCube, if only one dose was tested, hydrochloride) of 3 mpk.
On to `CNC1COc2c(C)csc2C1` (stereo not drawn) [Compound 247, N, 3-dimethyl-6,7-dihydro-5H-thieno[3,2-b]pyran-6-amine hydrochloride], for which, under setting [1], the minimal effective dose was found to be 3 mg/kg. Besides, under setting [2], the AD result is on record as “ND (^ <4%)”, the AG result is reported as “ND (^ <4%)”, the AN entry is on record as “ND (^ <4%)” and the AP entry was “++++ (≥74%)”. Besides, under setting [2], the AX result is “ND (^ <4%)”, the CE entry is reported as “ND (^ <4%)”, the HL entry is reported as “ND (^ <4%)” and the MS entry was “ND (^ <4%)”. Besides, under setting [2], the PS entry is on record as “ND (^ <4%)”, the SH entry is “ND (^ <4%)” and the UK result is listed as “ND (^ <4%)”.
For `CCc1csc2c1CC(N)CC2` (single isomer, unassigned) [Compound 280, 3-ethyl-4,5,6,7-tetrahydrobenzothiophen-5-amine hydrochloride], under setting [3], the AD result is on record as “ND (^ <4%)”, the AG result was “ND (^ <4%)”, the AN result was “ND (^ <4%)” and the AP result is “ND (^ <4%)”. In addition, under setting [3], the AX result is recorded as “ND (^ <4%)”, the CE result is reported as “ND (^ <4%)”, the HL entry is recorded as “ND (^ <4%)” and the MS result was “ND (^ <4%)”. Further, under setting [3], the PS entry is on record as “ND (^ <4%)” and the SH result is listed as “ND (^ <4%)”. Moreover, under setting [4], the UK result is recorded as “+++ (≥49%)”. Further, under “minimal effective dose: dose having 45% or more total activity in SmartCube, if only one dose was tested”, the MED amounted to 3 mpk.
On to `CNC1CCc2sc(F)cc2C1` (stereo not drawn) [Compound 82, 2-fluoro-N-methyl-4,5,6,7-tetrahydrobenzothiophen-5-amine hydrochloride], for which the minimal effective dose under setting [5] is 3 mg/kg. Under setting [6], the AD entry was “++ (≥24%)”, the AG result is listed as “ND (^ <4%)”, the AN entry is recorded as “ND (^ <4%)” and the AP entry is recorded as “+ (≥4%)”. Under setting [6], the AX entry was “ND (^ <4%)”, the CE entry is recorded as “ND (^ <4%)”, the HL entry is “ND (^ <4%)” and the MS entry is “ND (^ <4%)”. For the same compound, under setting [6], the PS entry is “ND (^ <4%)”, the SH entry is “ND (^ <4%)” and the UK result is reported as “++ (≥24%)”.
In the case of `CCc1scc2c1CC(NC)CC2` (single isomer, unassigned) [Compound 116, 3-ethyl-N-methyl-4,5,6,7-tetrahydro-2-benzothiophen-5-amine hydrochloride], the “MED (minimal effective dose)” value under setting [7] is given as less than 3 mpk. Besides, under setting [6], the AD result is given as “ND (^ <4%)”, the AG entry was “ND (^ <4%)”, the AN entry is “ND (^ <4%)” and the AX entry is “ND (^ <4%)”. Further, under setting [6], the CE result was “ND (^ <4%)”, the HL entry is given as “ND (^ <4%)”, the MS entry was “ND (^ <4%)” and the PS result was “ND (^ <4%)”. Under setting [6], the SH result is reported as “ND (^ <4%)” and the UK entry was “ND (^ <4%)”. Moreover, the AP result under setting [8] was “ND (^ <4%)”.
As to `CNC1CCc2scc(C)c2C1.Cl` (single isomer, unassigned) [Compound 70, N, 3-dimethyl-4,5,6,7-tetrahydrobenzothiophen-5-amine hydrochloride], under setting [7], the “MED (minimal effective dose)” value is 1 mpk. Also, under setting [6], the AD entry was “ND (^ <4%)”, the AG entry was “ND (^ <4%)”, the AN result is listed as “ND (^ <4%)” and the CE entry was “ND (^ <4%)”. Further, under setting [6], the HL result is “ND (^ <4%)”, the MS entry was “ND (^ <4%)”, the PS result was “ND (^ <4%)” and the SH result is listed as “ND (^ <4%)”. Moreover, under setting [8], the AP result is on record as “+++ (≥49%)”, the AX entry was “+ (≥4%)” and the UK entry is recorded as “ND (^ <4%)”.

The record behind these values is patent US20260274814A1, “THIENYL COMPOUNDS FOR THE TREATMENT OF A CENTRAL NERVOUS SYSTEM DISEASE OR DISORDER” (Coreterra Therapeutics, Inc., priority 2023, published 2026).
